We go through 7 molecules from PubChem BioAssay (NCI).

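Where inhibition never reached the appropriate level, the endpoint shown equals the highest concentration tested. Otherwise, values were interpolated linearly from a five-concentration, 48-hour dose response in 96-well plates. GI50: concentration for 50% inhibition of growth. TGI: concentration producing complete growth inhibition.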

Test systems include MOLT-4 leukemia; COLO 205 colon; BT-549 breast; ACHN renal; OVCAR-3 ovarian; A498 renal; MDA-MB-435; A549 NSCLC; MCF7 breast; SF-268 CNS.
Common to all, as to test: NCI-60 cell line screen, 48 h

Turning to `O=C(Nc1cc(C(F)(F)F)ccc1F)Nc1n[nH]c2ccccc12`, the GI50 with MOLT-4 leukemia, in the assay with COLO 205 colon, in the assay with BT-549 breast, with ACHN renal, with OVCAR-3 ovarian and in the assay with A498 renal was more than 100000 nM each time. Further, the GI50 in the assay with MDA-MB-435 is more than 100000 nM; with A549 NSCLC, more than 100000 nM; with MCF7 breast it was 18200 nM; in the assay on SF-268 CNS, more than 100000 nM. The TGI with MOLT-4 leukemia, with COLO 205 colon, in the assay with BT-549 breast, in the assay on ACHN renal, with OVCAR-3 ovarian and with A498 renal was more than 100000 nM each time. Besides, the TGI in the assay on MDA-MB-435, with A549 NSCLC, in the assay with MCF7 breast and with SF-268 CNS was more than 100000 nM throughout.

For the molecule `Cn1c(=O)cc2c3c(c(NCCCO)ccc31)C(=O)c1ccccc1-2`, the GI50 in the assay with MOLT-4 leukemia is 2070 nM; in the assay on COLO 205 colon, 3860 nM; in the assay with BT-549 breast, 6670 nM; with ACHN renal, 1210 nM; with OVCAR-3 ovarian, 5690 nM; in the assay on A498 renal it was 1770 nM. Besides, the GI50 is 3470 nM with MDA-MB-435, 3480 nM in the assay on A549 NSCLC, 3460 nM in the assay with MCF7 breast and 6750 nM in the assay on SF-268 CNS. Further, the TGI in the assay on MOLT-4 leukemia, with COLO 205 colon, in the assay with BT-549 breast, in the assay with ACHN renal, in the assay with OVCAR-3 ovarian and with A498 renal was more than 100000 nM each time. In addition, the TGI in the assay with MDA-MB-435, in the assay on A549 NSCLC, in the assay with MCF7 breast and in the assay with SF-268 CNS was more than 100000 nM in each case.

In the case of `CC(C)=CCc1c(O)cc(/C=C/c2cc(O)c3c(c2)C[C@@H]2C(C)(C)[C@H](O)[C@H](O)C[C@@]2(C)O3)cc1O`, the GI50 was less than 1 nM with MOLT-4 leukemia; 1370 nM in the assay on COLO 205 colon; 55.3 nM in the assay with BT-549 breast; 526 nM with ACHN renal; 1500 nM in the assay on OVCAR-3 ovarian; 1220 nM with A498 renal. Besides, the GI50 is 662 nM in the assay on MDA-MB-435, 249 nM with A549 NSCLC, 7.18 nM in the assay with MCF7 breast and 1110 nM in the assay with SF-268 CNS. Also, the TGI in the assay on MOLT-4 leukemia is 14.8 nM; in the assay with COLO 205 colon, 3820 nM; with BT-549 breast it was more than 7230 nM; with ACHN renal, more than 8740 nM; in the assay on OVCAR-3 ovarian, 5110 nM; in the assay on A498 renal, 9570 nM. In addition, the TGI with MDA-MB-435 was 4220 nM; with A549 NSCLC, more than 10000 nM; in the assay on MCF7 breast it was 831 nM; in the assay with SF-268 CNS, more than 7760 nM.

Take `CCOC(=O)CC1(O)C=CC(=O)C=C1`: the GI50 in the assay on MOLT-4 leukemia is 0.4 µg/mL; in the assay on COLO 205 colon, 2.59 µg/mL; in the assay with BT-549 breast, 1.48 µg/mL; in the assay with ACHN renal, 2.43 µg/mL; in the assay on OVCAR-3 ovarian it was 0.738 µg/mL; with A498 renal, 3.09 µg/mL. Also, the GI50 in the assay with MDA-MB-435 was 2.35 µg/mL; with A549 NSCLC, 4.95 µg/mL; in the assay on MCF7 breast it was 0.824 µg/mL; with SF-268 CNS it was 0.57 µg/mL. For the same molecule, the TGI is 1.61 µg/mL in the assay on MOLT-4 leukemia; 6.19 µg/mL in the assay with COLO 205 colon; 3.67 µg/mL in the assay with BT-549 breast; 4.6 µg/mL with ACHN renal; 2.16 µg/mL with OVCAR-3 ovarian; 5.26 µg/mL in the assay with A498 renal. Further, the TGI with MDA-MB-435 was determined as 4.89 µg/mL; in the assay with A549 NSCLC, 16.4 µg/mL; in the assay on MCF7 breast, 2.59 µg/mL; in the assay on SF-268 CNS, 1.92 µg/mL.

Turning to `COC(=O)CCC(=O)c1c(C)[nH]c(/C=C2\N=C(c3ccc[nH]3)C=C2OC)c1C`, the GI50 in the assay on MOLT-4 leukemia was 405 nM; with COLO 205 colon, 1040 nM; in the assay on BT-549 breast, 587 nM; with ACHN renal it was 783 nM; in the assay with OVCAR-3 ovarian, 353 nM; in the assay on A498 renal, 7860 nM. The GI50 was 426 nM in the assay with MDA-MB-435, 3080 nM in the assay with A549 NSCLC, 567 nM in the assay on MCF7 breast and 1030 nM in the assay with SF-268 CNS. The TGI in the assay on MOLT-4 leukemia amounted to 1850 nM; with COLO 205 colon it was 3290 nM; with BT-549 breast, 2170 nM; with ACHN renal, 4180 nM; with OVCAR-3 ovarian, 1700 nM; with A498 renal it was 20700 nM. Also, the TGI in the assay with MDA-MB-435 was determined as 1630 nM; in the assay with A549 NSCLC it was 10800 nM; with MCF7 breast it was 2030 nM; in the assay on SF-268 CNS, 3100 nM.

As for `Cn1c(COC(=O)N2CCCCC2)nc2c(N3CCOCC3)nc(-c3ccccc3)nc21`, the GI50 in the assay on MOLT-4 leukemia was 353 nM; with COLO 205 colon it was 1030 nM; in the assay on BT-549 breast it was 1010 nM; with ACHN renal, 352 nM; with OVCAR-3 ovarian it was 182 nM; in the assay on A498 renal it was 1370 nM. The GI50 in the assay on MDA-MB-435 is 580 nM; in the assay with A549 NSCLC, 1480 nM; in the assay on MCF7 breast, 378 nM; in the assay with SF-268 CNS it was 1330 nM. The TGI was determined as 2000 nM in the assay on MOLT-4 leukemia; 2630 nM in the assay with COLO 205 colon; 2260 nM in the assay on BT-549 breast; 1290 nM with ACHN renal; 390 nM with OVCAR-3 ovarian; 2690 nM with A498 renal. Further, the TGI with MDA-MB-435 turned out to be 1860 nM; in the assay with A549 NSCLC it was 3450 nM; in the assay on MCF7 breast, 1790 nM; with SF-268 CNS, 2710 nM.

Regarding `O=C1C=C(Nc2ccccc2C(=O)CC(=O)C(=O)Nc2cccc(C(F)(F)F)c2)c2ccccc2C1=O`, the TGI with MOLT-4 leukemia is more than 57900 nM; with COLO 205 colon, more than 100000 nM; with BT-549 breast, 49100 nM; in the assay with ACHN renal, more than 100000 nM; in the assay on OVCAR-3 ovarian it was 53800 nM; in the assay on A498 renal, more than 100000 nM. The TGI with MDA-MB-435 is 20900 nM; with A549 NSCLC, more than 89800 nM; in the assay with MCF7 breast it was 28900 nM; in the assay with SF-268 CNS it was 73300 nM.
